Data from PMC3821638, “Molecular Cloning and Characterization of the Calcineurin Subunit A from Plutella xylostella” (International Journal of Molecular Sciences, 2013).
Like-named read-outs stand apart in the source and are kept apart here.

Target: T1, Calcineurin subunit A (PxCNA), catalytic domain PxCNα (Plutella xylostella, UniProt V5U5Q7)
T1 construct: catalytic (phosphatase) domain CNA1–341 (PxCNα), His-tagged, expressed in E. coli
Experiment: pNPP phosphatase assay with purified recombinant rPxCNα, dose-response and enzyme kinetics
Assay type: biochemical

T1 sequence (V5U5Q7 1-341): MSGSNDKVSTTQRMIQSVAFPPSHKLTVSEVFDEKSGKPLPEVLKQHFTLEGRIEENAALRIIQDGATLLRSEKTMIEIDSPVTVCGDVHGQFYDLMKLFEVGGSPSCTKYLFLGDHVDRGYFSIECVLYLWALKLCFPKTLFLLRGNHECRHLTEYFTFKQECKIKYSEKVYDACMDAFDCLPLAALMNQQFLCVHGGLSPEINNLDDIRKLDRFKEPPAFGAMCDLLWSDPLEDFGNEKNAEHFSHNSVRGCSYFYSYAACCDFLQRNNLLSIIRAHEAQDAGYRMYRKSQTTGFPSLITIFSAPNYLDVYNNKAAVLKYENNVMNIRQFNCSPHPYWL

| Compound | IC50 [µM] | IC50 (read-out: IC50) [µM] |
| --- | --- | --- |
| C[C@@]12C(=O)OC(=O)[C@]1(C)[C@H]1CC[C@@H]2O1 [CTD, cantharidin] | 77.6 |  |
| C=C1[C@@H](O)[C@@H]2O[C@]3(CC[C@H](/C=C/[C@@H](C)[C@@H]4CC(C)=C[C@@]5(O[C@H](C[C@@](C)(O)C(=O)O)CC[C@H]5O)O4)O3)CC[C@H]2O[C@@H]1[C@@H](O)C[C@H](C)[C@H]1O[C@@]2(CCCCO2)CC[C@H]1C [OA, okadaic acid] |  | 8.95 |
